Experimental findings from article PMC5430599, “Antiplasmodial dihetarylthioethers target the coenzyme A synthesis pathway in Plasmodium falciparum erythrocytic stages” (Malaria Journal, 2017) are described below.

Data set [1] deals with asexual erythrocytic stages of transgenic NF54-luc P. falciparum. Description: Luciferase-based viability screening for anti-malarial activity. It counts as cell-based, Plasmodium falciparum. As to conditions: >50% inhibition of viability rated active; for inhibition at 3 µM: Plasmodium falciparum, NF54, 48 h, read-out: % inhibition, PfNF54-Luc at 3 µM, 3 µM, 48 h. As to the method:
Asexual erythrocytic stages of transgenic NF54-luc P. falciparum were used for the luciferase-based viability assay. These parasites constitutively express high levels of luciferase. The parasites were cultured as described previously. Parasite culture with parasitaemia of 0.5–1% was dispensed in triplicate into white 96-well flat-bottom plates (each well contains 250 µL) (NUNC, Roskilde, […], 90% N2, 5% CO2, and 5% O2). 0.01% DMSO was included in the untreated infected RBC cultures as negative control, since the compounds stock initially was diluted in DMSO and each treatment well also contained 0.01% DMSO. Subsequently, 100 µL RPMI1640 media was removed from each well and a 100 µL volume of the Bright-Glo® substrate solution added to each well. The resultant cleavage product of the reaction, light, was measured using a FLUOROSKAN FL luminometer (Thermo), to ascertain viable parasites. Untreated cultures were used as negative controls and to calculate the inhibition rate (0% inhibition of parasite growth). Blasticidin (Sigma-Aldrich, St. Louis, MO, USA), used for selection of transfected parasites, was included as a positive control on each plate and gave >90% inhibition of parasite growth at concentration 2 µg/mL. Compounds with >50% inhibition of viability were rated as actives. Experiments were performed in triplicate and were repeated at least twice.

The next data set has as its system THP-1 cells. Put plainly: Cytotoxicity assay: human THP-1 cell line (Alamar Blue). The class given is cell-based. The following applies: for IC50: Homo sapiens, THP-1, cytotoxicity, 48 h. As to the method:
THP-1 cells were passed into fresh THP-1 culture medium. Cells were harvested by centrifugation (250×g, 10′, 4 °C), washed three times with RPMI 1640 medium, and diluted to 8 × 10^5 cells/mL. The cells were aliquoted in triplicate (125 μL/well) into 96-well flat-bottom plates containing compounds diluted in complete medium (125 μL/well, containing 0.01% DMSO). THP-1 cells in wells containing medium plus 0.01% DMSO served as negative controls. Cells were incubated with test compounds at 37 °C and 5% CO2 for 48 h prior to the addition of 10% Alamar Blue (25 μL/well). After an additional 4 h the fluorescence was read (λex = 544 nm, λem = 590 nm) using a microplate reader (Fluoroskan Ascent FL, Thermo Fisher Scientific, Waltham, MA, USA). Results were analysed using Prism 4 (GraphPad Software Inc., La Jolla, CA, USA). Experiments were performed in triplicate and were repeated at least twice.

Data set [2] can be described thus: Aqueous thermodynamic solubility, miniaturized shake-flask method with HPLC. The class given is physicochemical. The following applies: for solubility thermodynamic / solubility: aqueous phosphate buffer, 25 °C, pH 7.4, aqueous buffer, thermodynamic from solid. As for the experimental part:
The aqueous solubility was determined using a miniaturized shake-flask-method. In brief, the compound (0.25–1.0 mg) was incubated in a Whatman Mini-Uniprep vial with aqueous phosphate buffer, pH 7.4, (300 µL) in an incubation shaker (IKA® KS 3000 ic control, Staufen, Germany) at 25 °C, 400 rpm. Presence of undissolved compound was checked at 24 and 48 h. After 24, 48, or 72 h of shaking, the filter plunger was punched into the vial and the concentration in the supernatant was determined by HPLC (AUC method, isocratic HPLC, at specific λmax as indicated in the Additional file 2). For the calibration, at least three different dilutions of the compounds from DMSO stock solutions diluted with ACN were quantified. Preparation of buffer pH 7.4: to a solution of Na2HPO4∙2 H2O (290 mg), K2HPO4 (20 mg) and NaCl (808 mg) in water (ad 100.0 mL), 12% aqueous HCl was added dropwise until the pH reached 7.4. In the case of 3a the concentration in the supernatant was below the limit of quantification. […] Further details of the solubility testing methods are described in Additional file 2, including calibration concentration ranges, composition of chromatographic eluents, and wavelength for measurement of absorbance.
Two stock solutions of each compound with a concentration of 10 mM (except for 8g: 1 mM) were prepared. Three dilutions with ACN were prepared (concentration range: 3d: 100 µM – […]
8g: 10 µM – 0.3 µM; 8k: 100 µM – 10 µM) from the stock solutions of the test compounds and measured as duplicates by HPLC (isocratic elution: solvent indicated in Additional file 2, Table, injection volume: indicated in Additional file 2, Table, flow rate: 1.000 mL/min, column temperature: 40 °C, time of detection: 8 min, detection by DAD at specific λmax as indicated in Additional file 2, Table). The area under the curve (% AUC) of the substance peak was determined and together with the respective concentration a linear calibration graph was created with Microsoft Excel (2010, Microsoft Corporation) for every compound.
Additional file 2, Table Af1: Solvents for isocratic elution, injection volumes and specific λmax […]
ID solvent injection volume [µL] λmax [nm]
Sample preparation and measurement of compound solubility
Samples of test compounds (0.25‐1.0 mg) were placed in Whatman‐Uni‐Prep® vials and aqueous phosphate buffer, pH 7.4 (300 µL, composition is indicated in Additional file 2, Table Af1) was added. The presence of undissolved compound was a requirement to determine the thermodynamic solubility. The vials were capped with the appropriate filter, […]
Additionally the vials were sealed with Parafilm M (Bemis Flexible Packaging, Neenah, WI, USA). The samples were incubated in an incubation shaker (IKA® KS 3000 ic control, Staufen, Germany) at 400 rpm and 25 °C for […]
24‐72 h. The presence of undissolved compound was checked at 24 and 48 h. Measurement of the samples was performed after 24 h, 48 h and 72 h; he filter plunger was punched into the vial and the concentration in the supernatant was determined by HPLC using the same methods as for the calibration solutions (Additional file 2, Table). All samples were measured in triplicate. By determination of the area under the curve (% AUC) of the substance and the specific linear calibration graph, the concentration of every compound in aqueous buffer solution was calculated. By comparison of the samples after 24 h and 48 h it was checked if equilibrium had been achieved after 24 h; if not, the samples were compared after 48 h and 72 h to check if equilibrium had been achieved after 48 h. In the case of 3a the concentration in the supernatant was below the limit of quantification. Therefore the lowest […]
Additional file 2, Table Af1: Composition of phosphate buffer pH 7.4 for determination of aqueous solubility. Modified according to Ph. Eur.8 […]
a Adjustment to pH 7.4 was carried out using a pH meter equipped with a glass electrode. […]
Lüddens, H., Synthesis of GABA A receptor agonists and evaluation of their α‐ […]

The mark [3] stands for this setting: aqueous buffer pH 7.4, shake flask.
Setting [4] is: thermodynamic solubility, aqueous buffer pH 7.4, 25 °C, equilibrium after 24 h (c) or 48 h (d) per footnote, read-out: S0, exp.
Setting [5] is: thermodynamic solubility, aqueous buffer pH 7.4, 25 °C, equilibrium after 24 h (c) or 48 h (d) per footnote.

The structures appear in SMILES notation. In brackets after ≈: the same amount, converted by molar mass. Where two headings read alike, the source gives them in different places.

Consider `c1cnc2[nH]c(Sc3ncnc4sccc34)nc2c1` [Compound 8k], for which the inhibition at 3 µM in data set [1] is 98 ± 0.2%. This compound yielded an IC50 with THP-1 cells of 28 µM. Besides, the “Log S0, exp” value in data set [2] (setting [3]) is recorded as −4.11. For the same compound, in data set [2] (setting [4]), the solubility thermodynamic turned out to be 77 µM (≈ 22 µg/mL).

For the compound `c1coc(-c2nnc(Sc3ncnc4sccc34)o2)c1` [Compound 3a], the “% inhibition, PfNF54-Luc at 3 µM” value in data set [1] (3 µM, 48 h) was 80.8 ± 0.5%. The inhibition at 3 µM in data set [1] came out at 80%. In addition, the half-maximal inhibitory concentration (IC50) in the data set with THP-1 cells is 6.13 µM. For the same compound, in data set [2] (setting [3]), the “Log S0, exp” value was <−6.00. Besides, the solubility thermodynamic in data set [2] (setting [4]) is < 1 µM.

On to `c1coc(Sc2ncnc3sccc23)n1` [Compound 8e], for which the inhibition at 3 µM in data set [1] worked out at 99.5 ± 0.5%. In addition, the midpoint of inhibition in the data set on THP-1 cells, the IC50, lay at 33.6 µM. Also, the “selectivity THP-1 vs 3D7 parasites” value with THP-1 cells (IC50 THP-1 / IC50 3D7) is recorded as 450 fold. For the same compound, the “selectivity toward human cell lines” value with THP-1 cells (human cell lines vs 3D7) was > 100 fold. Also, in data set [2] (setting [3]), the “Log S0, exp” value is on record as −2.88. The compound further came in with a solubility in data set [2] (pH 7.4, shake flask) of 1330 µM (≈ 313 µg/mL). The aqueous solubility in data set [2] (pH 7.4, shake flask, listed as 8e (KuWei173)) is > 1000 µM. The “S0, exp [µM]” value in data set [2] (setting [5]) is 1.33 × 10^3 c µM.

In the case of `c1csc(Sc2ncnc3sccc23)n1` [Compound 8d], the inhibition at 3 µM in data set [1] is 99.9%. In the data set with THP-1 cells, this compound had an IC50 of 27.5 µM. Also, in data set [2] (setting [3]), the “Log S0, exp” value is given as −4.44. For the same compound, the solubility thermodynamic in data set [2] (setting [4]) came out at 36.4 µM (≈ 9.15 µg/mL).

On to `Cn1ccnc1Sc1ncnc2sccc12` [Compound 8c], for which, in data set [1], the inhibition at 3 µM came out at 96.5 ± 1.6%. Moreover, the 50% inhibitory concentration (IC50) in the data set with THP-1 cells is > 300 µM. Moreover, the solubility thermodynamic in data set [2] (aqueous buffer pH 7.4, shake flask, read-out: Log S0, exp (converted)) is 1780 µM (≈ 442 µg/mL). Moreover, the solubility in data set [2] (pH 7.4, shake flask) is > 1000 µM. For the same compound, the “S0, exp [µM]” value in data set [2] (setting [5]) turned out to be 1780 µM·days.

On to `c1ccc2[nH]c(Sc3ncnc4sccc34)nc2c1` [Compound 8g], for which, in data set [1], the inhibition at 3 µM came to 95 ± 1.1%. This compound also displayed a concentration for half-maximal inhibition (IC50) in the data set with THP-1 cells of 16.5 µM. In addition, in data set [2] (setting [3]), the “Log S0, exp” value is on record as −6.37.

Turning to `Nc1nnc(Sc2ncnc3sccc23)s1` [Compound 8f], the inhibition at 3 µM in data set [1] was found to be 99.7 ± 0.1%. Further, half-maximal inhibition in the data set with THP-1 cells (IC50) was put at 11 µM. In data set [2] (setting [3]), the “Log S0, exp” value is given as −5.36. In addition, the solubility thermodynamic in data set [2] (setting [4]) came to 4.4 µM (≈ 1.18 µg/mL).

One may read the inhibition as the percentage by which the read-out fell short of the control. What is called IC50 is the concentration that inhibits the measured activity by half. Lower therefore signals greater potency in that assay. For orientation: solubility means how much of the substance goes into solution per volume. Low readings indicate little dissolved substance, high ones much dissolved substance. As a reminder, the aqueous solubility is the concentration that dissolves in the medium under given conditions. A low value points to little dissolved substance.
